Target: recombinant human baculovirus-expressed cMET (Homo sapiens (Human), UniProt P08581)
Assay: c-MET kinase assay (HTRF KinEASE)
Assay type: biochemical
Settings: not given

`O=C(Nc1ccc(Oc2cccn3nccc23)c(F)c1)C1CCN(c2ccc(F)cc2)C1=O` (stereo not shown) [Example 10, 1-(4-Fluoro-phenyl)-2-oxo-pyrrolidine-3-carboxylic acid [3-fluoro-4-(pyrazolo[1,5-a]pyridin-4-yloxy)-phenyl]-amide] was tested, and the IC50 was 10 to 100 nM.

Same assay, conditions: average of two or more determinations; read-out: c-MET IC50

First: 1-Methyl-5-trifluoromethyl-1H-pyrazole-4-carboxylic acid [4-(pyrazolo[1, 5-a]pyridin-4-yloxy)-phenyl]-amide [Example 17]
Second: O=C(Nc1ccc(Oc2cccn3nccc23)cc1)c1cccn(-c2ccc(F)cc2)c1=O [Example 1, 1-(4-Fluoro-phenyl)-2-oxo-1,2-dihydro-pyridine-3-carboxylic acid [4-(pyrazolo[1,5-a]pyridin-4-yloxy)-phenyl]-amide]
The IC50 of the first is higher: 1000 to 10000 nM for the first, under 10 nM for the second.

`O=C(Nc1ccc(Oc2cccn3nccc23)c(F)c1)c1cccn(-c2ccc(F)cc2)c1=O` [Example 4, 1-(4-Fluoro-phenyl)-2-oxo-1,2-dihydro-pyridine-3-carboxylic acid [3-fluoro-4-(pyrazolo[1,5-a]pyridin-4-yloxy)-phenyl]-amide] and `O=C(Nc1ccc(F)cc1)C1(C(=O)Nc2ccc(Oc3cccn4nccc34)c(F)c2)CC1` [Example 5, Cyclopropane-1,1-dicarboxylic acid (4-fluoro-phenyl)-amide [3-fluoro-4-(pyrazolo[1,5-a]pyridin-4-yloxy)-phenyl]-amide] cannot be ordered by IC50: under 10 nM for the first, under 10 nM for the second.

Compared with `O=C(Cc1ccc(F)cc1)NC(=S)Nc1ccc(Oc2cccn3nccc23)c(F)c1` [Example 6, 1-[2-(4-Fluoro-phenyl)-acetyl]-3-[3-fluoro-4-(pyrazolo[1,5-a]pyridin-4-yloxy)-phenyl]-thiourea], `O=C(Nc1ccc(Oc2cccn3nccc23)c(F)c1)c1cccn(Cc2ccc(F)cc2)c1=O` [Example 8, 1-(4-Fluoro-benzyl)-2-oxo-1,2-dihydro-pyridine-3-carboxylic acid [3-fluoro-4-(pyrazolo[1,5-a]pyridin-4-yloxy)-phenyl]-amide] is higher in IC50: 10 to 100 nM for the first, 101 to 1000 nM for the second.

First: O=C(Nc1ccc(Oc2cccn3nccc23)c(F)c1)c1cccn(Cc2cccc(F)c2)c1=O [Example 9, 1-(3-Fluoro-benzyl)-2-oxo-1,2-dihydro-pyridine-3-carboxylic acid [3-fluoro-4-(pyrazolo[1,5-a]pyridin-4-yloxy)-phenyl]-amide]
Second: O=C(Nc1ccc(Oc2cccn3nccc23)c(F)c1)c1c[nH]c(=O)n(-c2ccc(F)cc2)c1=O [Example 11, 3-(4-Fluoro-phenyl)-2,4-dioxo-1,2,3,4-tetrahydro-pyrimidine-5-carboxylic acid [3-fluoro-4-(pyrazolo[1,5-a]pyridin-4-yloxy)-phenyl]-amide]
The IC50 of the first is higher: 101 to 1000 nM for the first, 10 to 100 nM for the second. The second is the more potent here.

First: O=C(Nc1ccc(Oc2cccn3nccc23)c(F)c1)c1c(I)ccn(-c2ccc(F)cc2)c1=O [Example 12, 1-(4-Fluoro-phenyl)-4-iodo-2-oxo-1,2-dihydro-pyridine-3-carboxylic acid [3-fluoro-4-(pyrazolo[1,5-a]pyridin-4-yloxy)-phenyl]-amide]
Second: CCOc1ccn(-c2ccc(F)cc2)c(=O)c1C(=O)Nc1ccc(Oc2cccn3nccc23)c(F)c1 [Example 13, 4-Ethoxy-1-(4-fluoro-phenyl)-2-oxo-1,2-dihydro-pyridine-3-carboxylic acid [3-fluoro-4-(pyrazolo[1,5-a]pyridin-4-yloxy)-phenyl]-amide]
The IC50 of the first is higher: 10 to 100 nM for the first, under 10 nM for the second.

`CCOCCOc1ccn(-c2ccc(F)cc2)c(=O)c1C(=O)Nc1ccc(Oc2cccn3nccc23)c(F)c1` [Example 14, 4-(2-Ethoxy-ethoxy)-1-(4-fluoro-phenyl)-2-oxo-1,2-dihydro-pyridine-3-carboxylic acid [3-fluoro-4-(pyrazolo[1,5-a]pyridin-4-yloxy)-phenyl]-amide] and `CCNc1ccn(-c2ccc(F)cc2)c(=O)c1C(=O)Nc1ccc(Oc2cccn3nccc23)c(F)c1` [Example 15, 4-Ethylamino-1-(4-fluoro-phenyl)-2-oxo-1,2-dihydro-pyridine-3-carboxylic acid [3-fluoro-4-(pyrazolo[1,5-a]pyridin-4-yloxy)-phenyl]-amide] fall in the same range of IC50: 10 to 100 nM for the first, 10 to 100 nM for the second.

`Cc1c(C(=O)Nc2ccc(Oc3cccn4nccc34)cc2)cnn1-c1ccc(F)cc1` [Example 18, 1-(4-Fluoro-phenyl)-5-methyl-1H-pyrazole-4-carboxylic acid [4-(pyrazolo[1,5-a]pyridin-4-yloxy)-phenyl]-amide] and `O=C(Nc1ccc(Oc2cccn3nccc23)cc1)c1cnn(-c2ccccc2)c1C(F)(F)F` [Example 19, 1-Phenyl-5-trifluoromethyl-1H-pyrazole-4-carboxylic acid [4-(pyrazolo[1,5-a]pyridin-4-yloxy)-phenyl]-amide] fall in the same range of IC50: 1000 to 10000 nM for the first, 1000 to 10000 nM for the second.

First: Cc1nn(-c2ccccc2)c(C)c1C(=O)Nc1ccc(Oc2cccn3nccc23)cc1 [Example 20, 3,5-Dimethyl-1-phenyl-1H-pyrazole-4-carboxylic acid [4-(pyrazolo[1,5-a]pyridin-4-yloxy)-phenyl]-amide]
Second: COc1cc(Oc2ccc(NC(=O)c3cccn(-c4ccc(F)cc4)c3=O)cc2F)c2ccnn2c1 [Example 22, 1-(4-Fluoro-phenyl)-2-oxo-1,2-dihydro-pyridine-3-carboxylic acid [3-fluoro-4-(6-methoxy-pyrazolo[1,5-a]pyridin-4-yloxy)-phenyl]-amide]
The IC50 of the first is higher: 1000 to 10000 nM for the first, 101 to 1000 nM for the second. The second is the more potent here.

First: O=C(Nc1ccc(Oc2cccn3ncc(Cl)c23)c(F)c1)c1cccn(-c2ccc(F)cc2)c1=O [Example 23, 1-(4-Fluoro-phenyl)-2-oxo-1,2-dihydro-pyridine-3-carboxylic acid [4-(3-chloro-pyrazolo[1,5-a]pyridin-4-yloxy)-3-fluoro-phenyl]-amide]
Second: O=C(Nc1ccc(Oc2cc(Br)cn3nccc23)c(F)c1)c1cccn(-c2ccc(F)cc2)c1=O [Example 24, (4-Fluoro-phenyl)-2-oxo-1,2-dihydro-pyridine-3-carboxylic acid [4-(6-bromo-pyrazolo[1,5-a]pyridin-4-yloxy)-3-fluoro-phenyl]-amide]
The IC50 of the first is higher: 101 to 1000 nM for the first, under 10 nM for the second.

`Cn1cc(-c2cc(Oc3ccc(NC(=O)C4(C(=O)Nc5ccc(F)cc5)CC4)cc3F)c3ccnn3c2)cn1` [Example 32, Cyclopropane-1,1-dicarboxylic acid {3-fluoro-4-[6-(1-methyl-1H-pyrazol-4-yl)-pyrazolo[1,5-a]pyridin-4-yloxy]-phenyl}-amide(4-fluoro-phenyl)-amide] and `CN1CCN(c2ccc(-c3cc(Oc4ccc(NC(=O)C5(C(=O)Nc6ccc(F)cc6)CC5)cc4F)c4ccnn4c3)cn2)CC1` [Example 36, Cyclopropane-1,1-dicarboxylic acid (3-fluoro-4-{6-[6-(4-methyl-piperazin-1-yl)-pyridin-3-yl]-pyrazolo[1,5-a]pyridin-4-yloxy}-phenyl)-amide (4-fluoro-phenyl)-amide] cannot be ordered by IC50: under 10 nM for the first, under 10 nM for the second.

Same assay, conditions: read-out: c-MET IC50

With `COc1ccc(-c2cc(Oc3ccc(NC(=O)c4cccn(-c5ccc(F)cc5)c4=O)cc3F)c3ccnn3c2)cn1` [Example 35, 1-(4-Fluoro-phenyl)-2-oxo-1,2-dihydro-pyridine-3-carboxylic acid {3-fluoro-4-[6-(6-methoxy-pyridin-3-yl)-pyrazolo[1,5-a]pyridin-4-yloxy]-phenyl}-amide] the IC50 was under 10 nM.

Source: patent publication US9914731B2, “Pyrazolo[1,5-a]pyridine derivatives and methods of their use” (Ignyta, Inc., priority 2013, dated 2018)
